Measurements reported in patent publication US4117108A, “Oral hygiene” (Noxell Corporation, priority 1976, dated 1978).

Columns and labels:
[1] = system: pellicle and plaque growth on extracted human teeth and plastic strip; assay: Inhibition of plaque/pellicle formation on extracted human teeth (mounted on polymethylmethacrylate strip) with composition added to the media (Example 20 procedure); set-up: species or system human saliva / human teeth; details: for pellicle and plaque formation/inhibition on the teeth: 0.1 ml of 1% by weight in distilled water added to about 200 ml media, second 24 h at about 37° C
Procedure: A set of three extracted human teeth without the roots is mounted on a polymethylmethacrylate plastic strip of about 1 inch × 3 inches. A drop of human saliva is applied to each tooth and allowed to dry. The set of teeth is then placed in a petri dish and covered with about 200 ml of an aqueous solution of about 2% trypticase and about 4% sucrose. The dish is then inoculated with an additional 1 ml of human saliva and then incubated at about 37° C for about 24 hours.
Next, the set of teeth is removed from the media, rinsed, and then dipped into a 0.5% aqueous solution of FD & C RED No. 3 to visually disclose the plaque.
The teeth are then brushed with water using an electric toothbrush fitted with a soft nylon brush until all of the red disclosed plaque and/or pellicle is removed.
The teeth are then swabbed with human saliva, placed in a petri dish covered with about 200 ml of the trypticase-sucrose media and about 0.1 ml of a composition containing 1% by weight DL-N-carboxymethylmethyl-N,N-dimethyl-N-(3-palmitamidopropyl) ammonium betaine and the remainder being distilled water. The contents of the dish are then inoculated with an additional 1 ml of saliva and incubated for about 24 hours at about 37° C. At the end of the 24 hours, the set of teeth is removed from the media, dried, and dipped into a 0.5% FE & C RED No. 3 solution for about 60 seconds to visually disclose the presence of pellicle and plaque and is then rinsed under tap water.

[2] = system: pellicle and plaque growth on extracted human teeth and plastic strip; assay: as above; set-up: species or system human saliva / human teeth; details: 0.1 ml of 1% by weight in propylene glycol; second 24 h
[3] = system: plaque and pellicle growth on extracted human teeth; assay: Inhibition of plaque/pellicle redeposition on extracted human teeth brushed with the composition, then incubated with saliva (Example 1A procedure)
Procedure: A set of three extracted human teeth without the roots is mounted on a plastic strip of about 1 inch × 3 inches. The teeth are then swabbed with human saliva using a sterile Dacron swab and allowed to dry for about 15 minutes. The strip is then placed in a petri dish and covered with about 200 ml of an aqueous solution of about 2% trypticase and about 4% sucrose. Each dish is then inoculated with an additional 1 ml of human saliva and then incubated at about 37° C for about 24 hours.
Next, the set of teeth is removed from the media, dried, and then dipped into a 0.5% aqueous solution of FD & C RED No. 3 to visually disclose the plaque. The strip is then rinsed under tap water.
The teeth are then brushed with an electric toothbrush […], […], until all of the red disclosed plaque is removed and are then rinsed.
The teeth are then again swabbed with human saliva, placed in a petri dish covered with the trypticase-sucrose media, which is then inoculated with an additional 1 ml of saliva and incubated for about 24 hours at about 37° C. At the end of the 24 hours, the set of teeth is removed from the media, dried, and dipped into a 0.5% FD & C RED No. 3 solution for about 60 seconds to visually disclose the presence of plaque and is then rinsed under tap water.
All of the above examples employed new sets of teeth or plastic strips and new brushes for the brushing, respectively. Any NaCl present in the composition is due to its presence in the available compositions of the fatty acid amido compounds.

[4] = system: plaque and pellicle formation; assay: Observed plaque/pellicle retardation (general statements, test not specified at the place); details: for plaque inhibition activity: various compositions with about 5% betaine, including (isostearic) 24% glycerin, 1% propylene glycol, 0.75% carboxymethyl cellulose, 69.25% water
[5] = system: plaque and/or pellicle growth on polymethyl methacrylate strips; assay: Inhibition of plaque/pellicle growth on polymethyl methacrylate strips brushed with the composition (Example 16 procedure); set-up: species or system human saliva; details: second 24 h
[6] = Acute oral LD50 study; details: in vivo, rat, palmitic amido betaine purified according to Example 10
Procedure: An acute oral LD50 study was done on rats for Schercotaine PAB in mature albino rats.
Palmitic amido betaine purified according to Example 10 is also tested according to the above procedure.

CCCCCCCC/C=C\CCCCCCCC(=O)NCCC[N+](C)(C)C(C)C(=O)[O-] (racemic) [DL-N-carboxymethylmethyl-N,N-dimethyl-N-(3-oleylamidopropyl) ammonium betaine]
pellicle and plaque formation/inhibition on the teeth [1]: inhibits plaque and pellicle formation on the teeth

CCCCCCCCCCCCCCCC(=O)NCCC[N+](C)(C)C(C)C(=O)[O-] (racemic) [DL-N-carboxymethylmethyl-N,N-dimethyl-N-(3-palmitamidopropyl) ammonium betaine]
pellicle and plaque formation/inhibition on the teeth [1]: No pellicle and plaque growth are observed on the teeth

CCCCCCCCCCCCCCCCCC(=O)NCCC[N+](C)(C)C(C)C(=O)[O-] (racemic) [DL-N-carboxymethylmethyl-N,N-dimethyl-N-(3-stearamidopropyl) ammonium betaine]
pellicle and plaque formation/inhibition on the teeth [1]: slight activity against plaque and pellicle formation on the teeth

CCCCCCCC/C=C\CCCCCCCC(=O)NCCC[N+](C)(C)CCS(=O)(=O)[O-] [2-[N,N-dimethyl-N-(3-oleylamidopropyl)-amino] ethanesulfobetaine]
activity against plaque and pellicle formation on the teeth [2]: exhibits activity against plaque and pellicle formation on the teeth
plaque growth on teeth and plastic [2]: Very slight plaque growth is observed on teeth and plastic

CCCCCCCCCCCCCCCC(=O)NCCC[N+](C)(C)CCS(=O)(=O)[O-] [2-[N,N-dimethyl-N-(3-palmitamidopropyl)-amino] ethanesulfobetaine]
activity against plaque and pellicle formation on the teeth [2]: exhibits activity against plaque and pellicle formation on the teeth
plaque growth on teeth and plastic [2]: Only slight plaque growth is observed on the teeth and plastic

CCCCCCCC/C=C\CCCCCCCC(=O)NCCC[N+](C)(C)CCC(=O)[O-] [N-carboxyethyl-N,N-dimethyl-N-(3-oleylamidopropyl) ammonium betaine]
pellicle and plaque formation/inhibition on the teeth [1]: inhibits plaque and pellicle formation on the teeth

CCCCCCCCCCCCCCCC(=O)NCCC[N+](C)(C)CCC(=O)[O-] [N-carboxyethyl-N,N-dimethyl-N-(3-palmitamidopropyl) ammonium betaine]
pellicle and plaque formation/inhibition on the teeth [1]: complete inhibition of plaque and pellicle formation on the teeth
plaque and/or pellicle on the plastic strip ([1]; 0.1 ml of 1% by weight in distilled water, second 24 h): very slight plaque and/or pellicle on the plastic strip

CCCCCCCCCCCCCCCCCC(=O)NCCC[N+](C)(C)CCC(=O)[O-] [N-carboxyethyl-N,N-dimethyl-N-(3-stearamidopropyl) ammonium betaine]
pellicle and plaque formation/inhibition on the teeth [1]: inhibits plaque and pellicle formation on the teeth

CCCCCCCC/C=C\CCCCCCCC(=O)NCCC[N+](C)(C)CC(=O)[O-] [oleic amido betaine]
inhibition of pellicle and plaque growth ([3]; Example 7: about 25% betaine, up to 5% NaCl, water (Schercotaine OAB), second 24 h): almost complete inhibition of pellicle and plaque growth on the teeth

CCCCCCCCCCCCCCCC(=O)NCCC[N+](C)(C)CC(=O)[O-] [palmitic amido betaine]
retardation of plaque formation ([4]; about 2.5% betaine, about 10% silica, about 56% sorbitol, up to 5% NaCl, water, with rinsing): did not retard plaque formation
retardation of plaque formation ([4]; about 2.5% or less betaine, about 10% ethyl alcohol, up to about 5% NaCl, water, with rinsing): did not retard plaque formation
retardation of plaque formation ([4]; about 5% betaine, about 8% silica, about 50.5% sorbitol, about 36.5% water): marginally effective in that sometimes the composition exhibited retardation of plaque while other times the composition did not
retardation of plaque formation ([4]; about 5% betaine, about 95% water): retarded plaque formation
prevention of plaque formation ([4]; same compositions (2.5% or less with ethyl alcohol; 2.5% with silica/sorbitol), no rinsing after treatment): prevented the formation of plaque
plaque growth on teeth / inhibition of plaque redeposition ([3]; Example 1A: about 25% palmitic amido betaine, 2-5% NaCl, remainder water (Schercotaine PAB), brushed and rinsed, second 24 h at 37° C): effectively inhibits the redeposition of dental plaque on the teeth
pellicle and plaque inhibition ([3]; Example 2: about 20% betaine, 10% ethyl alcohol, 70% water, second 24 h): provides pellicle and plaque inhibition although not as great as the preparation employed in Example 1A
prevention of pellicle and plaque formation ([3]; Example 4: about 10% betaine, 8% silica gel (Syloid 244), 36.4% sorbitol, up to 5% NaCl, water, second 24 h): complete prevention of pellicle and plaque formation on the teeth
pellicle or plaque formation ([3]; Example 5: about 2.5% betaine, 10% ethyl alcohol, up to 5% NaCl, water, brushed and dipped, not rinsed, second 24 h): no pellicle or plaque formation on the set of teeth
pellicle and plaque inhibition ([3]; Example 8: about 10 parts betaine, 35.7 sorbitol, 8 silica QUSO G-30, 1 propylene glycol, 45 water, second 24 h): complete pellicle and plaque inhibition on the teeth
inhibition of pellicle and plaque growth ([3]; Example 9: about 10 parts betaine, 35.7 sorbitol, 8 silica QUSO G-32, 1 propylene glycol, 45 water, second 24 h): complete inhibition of pellicle and plaque growth
inhibition of plaque and pellicle growth ([3]; Example 10: about 10% purified betaine, 90% water, 24 h): complete inhibition of plaque and pellicle growth on the teeth
inhibition of plaque and pellicle growth ([3]; Example 11: about 5% purified betaine, 95% water, 24 h): partial inhibition of plaque and pellicle growth on the teeth
inhibition of pellicle and plaque growth ([3]; Example 12: about 30 parts betaine in paste with sorbitol, glycerin, carboxymethyl cellulose, Syloid 244, hydrated alumina, pH about 6.4, second 24 h): complete inhibition of pellicle and plaque growth on the teeth
plaque and pellicle inhibition ([3]; Example 13: about 25 parts purified betaine in paste with sorbitol, carboxymethyl cellulose, hydrated alumina, Syloid 244, glycerin, second 24 h): complete plaque and pellicle inhibition on the teeth
inhibition of plaque and pellicle growth ([3]; Example 14: about 30 parts purified betaine in paste with Pluronic F-68, sorbitol, carboxymethyl cellulose, hydrated alumina, Syloid 244, second 24 h): complete inhibition of plaque and pellicle growth on the teeth
prevention of plaque and/or pellicle growth ([5]; Example 17B: Denta Fresh ingredients with Tegobetaine C replaced by 15% palmitic amido betaine): does not prevent plaque and/or pellicle growth
LD50 [6]: 2400 mg/kg

CCCCCCCCCCCCCCCCCC(=O)NCCC[N+](C)(C)CC(=O)[O-] [stearic amido betaine]
plaque inhibition activity [4]: did not exhibit plaque inhibition activity

isostearic amido betaine
plaque inhibition ([4]; about 5% betaine, similar composition with about 0.75% hydroxyethyl cellulose in place of carboxymethyl cellulose): retarded plaque formation and exhibited moderate plaque inhibition
plaque inhibition activity [4]: did not exhibit plaque inhibition activity
plaque and pellicle inhibition ([3]; Example 3: about 35% betaine, 2-5% NaCl, remainder water (Schercotaine IAB), second 24 h): good plaque and pellicle inhibition
pellicle and plaque inhibition ([3]; Example 6: about 5% betaine, 24% glycerin, 0.75% hydroxyethyl cellulose, 1% propylene glycol, up to 5% NaCl, water, second 24 h): moderate pellicle and plaque inhibition
plaque and pellicle on the teeth ([3]; Example 15: about 14% betaine, 86% water, second 24 h): no plaque and pellicle are present on the teeth
prevention of plaque and/or pellicle growth ([5]; Example 17C: Denta Fresh ingredients with Tegobetaine C replaced by 15% isostearic amido betaine): does not prevent plaque and/or pellicle growth
